Results from patent US11357779B2 (G1 Therapeutics, Inc., priority 2018, dated 2022).

Assay: Adverse events by CTCAE grade and frequency, all dosing cohorts
Assay type: in vivo, human
Source text: Patients were enrolled into 1 of 2 parallel, independently operating, dose-escalation dosing cohorts with Form B of Compound II administered continuously either once daily (QD) or twice daily (BID) with food with fixed-dose fulvestrant (intramuscularly every 14 days for the first three injections and then every 28 days). Pre- or perimenopausal patients also received goserelin for the duration of study treatment. A […] agonist was started at least 28 days before the first dose of Form B, and those patients who were taking another LHRH agonist were switched to goserelin on Day 1. Patients were split into […] cohorts providing once a day (QD) dosing of 200 mg, 300 mg, 400 mg, 500 mg, or 650 mg of Form B, or twice a day (BID) dosing of 100 mg, 150 mg, or 200 mg of Form B. The second dose in BID cohorts was not administered in the evening until at least 12 hours after the initial morning dose of Form B. The dosing cohorts for Form B of Compound II are provided in Table 1.

[1] = Dose 100 mg BID, adverse event frequency
[2] = Dose 150 mg BID, adverse event frequency
[3] = Dose 200 mg BID, adverse event frequency
[4] = Dose 200 mg QD, adverse event frequency
[5] = Dose 300 mg QD, adverse event frequency
[6] = Dose 400 mg QD, adverse event frequency
[7] = Dose 500 mg QD, adverse event frequency
[8] = Dose 650 mg QD, adverse event frequency
[9] = Total, all dosing cohorts, All Grades, frequency
[10] = Total, all dosing cohorts, CTCAE Grade 1, frequency
[11] = Total, all dosing cohorts, CTCAE Grade 2, frequency
[12] = Total, all dosing cohorts, CTCAE Grade 3, frequency
[13] = Total, all dosing cohorts, CTCAE Grade 4, frequency

CC(C)N1CCN(c2ccc(Nc3ncc4cc5n(c4n3)C3(CCCCC3)CNC5=O)nc2)CC1 [Form B]
14: Diarrhea [9]
16: Leukopenia [9]
11: Anemia [9]
12: Vomiting [9]
0: ALT increase [1] | AST increased [1] | BUN increased [1] | Febrile neutropenia [1] | GGT increased [1] | Lymphopenia [1] | Metrorrhagia [1] | Stomatitis [1] | Vomiting [1] | ALT increase [2] | AST increased [2] | BUN increased [2] | GGT increased [2] | Lymphopenia [2] | SCr increased [2] | ALT increase [3] | AST increased [3] | Anemia [3] | BUN increased [3] | Febrile neutropenia [3] | GGT increased [3] | Hematuria [3] | Lymphopenia [3] | Metrorrhagia [3] | SCr increased [3] | Stomatitis [3] | Thrombocytopenia [3] | Vomiting [3] | ALT increase [4] | AST increased [4] | Fatigue [4] | Febrile neutropenia [4] | GGT increased [4] | Metrorrhagia [4] | Nausea [4] | SCr increased [4] | Stomatitis [4] | Thrombocytopenia [4] | Vomiting [4] | ALT increase [5] | AST increased [5] | Febrile neutropenia [5] | GGT increased [5] | Lymphopenia [5] | Metrorrhagia [5] | SCr increased [5] | Stomatitis [5] | BUN increased [6] | Febrile neutropenia [6] | Leukopenia [6] | Lymphopenia [6] | Metrorrhagia [6] | SCr increased [6] | Stomatitis [6] | AST increased [7] | BUN increased [7] | Febrile neutropenia [7] | GGT increased [7] | Hematuria [7] | Lymphopenia [7] | Metrorrhagia [7] | Stomatitis [7] | ALT increase [8] | AST increased [8] | Anemia [8] | BUN increased [8] | Febrile neutropenia [8] | GGT increased [8] | Hematuria [8] | Lymphopenia [8] | Metrorrhagia [8] | SCr increased [8] | Stomatitis [8] | Thrombocytopenia [8] | AST increased [10] | Febrile neutropenia [10] | GGT increased [10] | Lymphopenia [10] | Metrorrhagia [10] | Stomatitis [10] | BUN increased [11] | Febrile neutropenia [11] | Hematuria [11] | SCr increased [11] | ALT increase [12] | AST increased [12] | BUN increased [12] | Diarrhea [12] | Fatigue [12] | GGT increased [12] | Hematuria [12] | Lymphopenia [12] | Metrorrhagia [12] | Nausea [12] | SCr increased [12] | Stomatitis [12] | Thrombocytopenia [12] | Vomiting [12] | ALT increase [13] | AST increased [13] | Anemia [13] | BUN increased [13] | Diarrhea [13] | Fatigue [13] | Febrile neutropenia [13] | GGT increased [13] | Hematuria [13] | Leukopenia [13] | Lymphopenia [13] | Metrorrhagia [13] | Nausea [13] | SCr increased [13] | Stomatitis [13] | Thrombocytopenia [13] | Vomiting [13]
8: Fatigue [9] | Nausea [10] | Diarrhea [11]
9: Leukopenia [11] | Neutropenia [12]
3: Leukopenia [1] | Leukopenia [2] | Neutropenia [2] | Anemia [4] | Neutropenia [5] | Nausea [6] | Neutropenia [6] | Vomiting [6] | Nausea [7] | Neutropenia [7] | Thrombocytopenia [7] | Nausea [8] | Anemia [10] | Fatigue [11] | Vomiting [11] | Leukopenia [12]
4: Neutropenia [1] | Leukopenia [4] | Neutropenia [4] | Diarrhea [8] | Leukopenia [10]
7: Thrombocytopenia [9] | Nausea [11] | Neutropenia [11]
1: Diarrhea [1] | Fatigue [1] | Hematuria [1] | SCr increased [1] | Thrombocytopenia [1] | Anemia [2] | Fatigue [2] | Febrile neutropenia [2] | Hematuria [2] | Metrorrhagia [2] | Nausea [2] | Stomatitis [2] | Thrombocytopenia [2] | Vomiting [2] | Diarrhea [3] | Fatigue [3] | Leukopenia [3] | Nausea [3] | BUN increased [4] | Diarrhea [4] | Hematuria [4] | Lymphopenia [4] | Anemia [5] | BUN increased [5] | Fatigue [5] | Hematuria [5] | Thrombocytopenia [5] | ALT increase [6] | AST increased [6] | GGT increased [6] | Hematuria [6] | Thrombocytopenia [6] | ALT increase [7] | Diarrhea [7] | Fatigue [7] | Leukopenia [7] | SCr increased [7] | Vomiting [7] | Fatigue [8] | AST increased [9] | Febrile neutropenia [9] | GGT increased [9] | Lymphopenia [9] | Metrorrhagia [9] | Stomatitis [9] | ALT increase [10] | ALT increase [11] | AST increased [11] | GGT increased [11] | Lymphopenia [11] | Metrorrhagia [11] | Stomatitis [11] | Anemia [12] | Febrile neutropenia [12]
5: Vomiting [8] | Hematuria [9] | Fatigue [10] | Hematuria [10] | Thrombocytopenia [10] | Vomiting [10]
2: Anemia [1] | Nausea [1] | Diarrhea [2] | Neutropenia [3] | Diarrhea [5] | Leukopenia [5] | Nausea [5] | Vomiting [5] | Anemia [6] | Diarrhea [6] | Fatigue [6] | Anemia [7] | Leukopenia [8] | Neutropenia [8] | ALT increase [9] | BUN increased [9] | SCr increased [9] | BUN increased [10] | SCr increased [10] | Anemia [11] | Thrombocytopenia [11] | Neutropenia [13]
6: Diarrhea [10] | Neutropenia [10]
24: Neutropenia [9]
15: Nausea [9]
